Measurements published in ChEMBL document CHEMBL3112450, “Synthesis and in vitro antitumor evaluation of primary amine substituted quinazoline linked benzimidazole” (Bioorg Med Chem Lett, 2014).

Columns and labels:
Assay type in all cases: functional
[1] = Cytotoxicity against human EKVX cells assessed as cell growth at 10^-5 M after 48 hrs by SRB assay; conditions: read-out: Activity
[2] = test system: HOP-92; experiment: Cytotoxicity against human HOP92 cells assessed as growth inhibition at 10 uM after 48 hrs by SRB assay; conditions: HOP-92, 48 h, read-out: GI
[3] = test system: RPMI-8226; experiment: Cytotoxicity against human RPMI8226 cells assessed as growth inhibition at 10 uM after 48 hrs by SRB assay; conditions: RPMI-8226, 48 h, read-out: GI

Row | SMILES | growth at 10 µM [1] | inhibition of growth at 10 µM [2] | inhibition of growth at 10 µM [3]
1 | C=CCn1c(C)nc2ccc(Nc3nc(Nc4ncccn4)nc4ccccc34)cc21 | 87.2% | 30% | 30%
2 | C=CCn1c(C)nc2ccc(Nc3nc(NCCO)nc4ccccc34)cc21 | 95.5% | 30% | 
